Structures can show the parent of a compound that is named as a salt.
Tests used:
[1] = biological target: T1, Brain AChE (acetylcholinesterase, rat striatum) (Rattus norvegicus, UniProt P37136); experiment: In vitro inhibition of acetylcholinesterase activity in rat striatum; type: biochemical, rat (male Wistar); settings: read-out: Inhibitory Concentration, Brain AChE
T1 construct: corpora striata dissected free, weighed and homogenized in 19 volumes; from tissue; host or cells: corpus striatum homogenate of male Wistar rats
Description: Cholinesterases are found throughout the body, both in the brain and in serum. However, only brain acetylcholinesterase (AChE) distribution is correlated with central cholinergic innervation.
The method described below was used in this invention for assaying cholinesterase activity.
4. A 2 mM stock solution of the test drug is made up in a suitable solvent and q.s. to volume with 0.5 mM DTNB (reagent 3). Drugs are serially diluted (1:10) such that the final concentration (in cuvette) is 10^-4 M and screened for activity. If active, IC50 values are determined from the inhibitory activity of subsequent concentrations.
Male Wistar rats are decapitated, brains rapidly removed, corpora striata dissected free, weighed and homogenized in 19 volumes (approximately 7 mg protein/ml) of 0.05M phosphate buffer, pH 7.2 using a Potter-Elvehjem homogenizer. A 25 microliter aliquot of the homogenate is added to 1.0 milliter vehicle or various concentrations of the test drug and preincubated for 10 minutes at 37° C.
Enzyme activity is measured with the Beckman DU-50 spectrophotometer. This method can be used for IC50 determinations and for measuring kinetic constants.
Substrate concentration is 10 mM diluted 1:2 in assay yielding final concentration of 5 mM. DTNB concentration is 0.5 mM yielding 0.25 mM final concentration. [formula]
IC50 values are calculated from log-probit analysis.

[2] = system: Scopolamine Induced Memory Deficit; experiment: Dark Avoidance Assay (reversal of scopolamine induced memory deficit); type: in vivo; settings: mice, s.c., tested again 24 hours later
Description: In this assay mice are tested for their ability to remember an unpleasant stimulus for a period of 24 hours. A mouse is placed in a chamber that contains a dark compartment; a strong incandescent light drives it to the dark compartment, where an electric shock is administered through metal plates on the floor. The animal is removed from the testing apparatus and tested again, 24 hours later, for the ability to remember the electric shock.
If scopolamine, an anticholinergic that is known to cause memory impairment, is administered before an animal's initial exposure to the test chamber, the animal re-enters the dark compartment shortly after being placed in the test chamber 24 hours later. This effect of scopolamine is blocked by an active test compound, resulting in a greater interval before re-entry into the dark compartment.
The results for an active compound are expressed as the percent of a group of animals in which the effect of scopolamine is blocked, as manifested by an increased interval between being placed in the test chamber and re-entering the dark compartment.
Results of this assay for some of the compounds of this invention and those for tacrine and pilocarpine (reference compounds) are presented in Table 2.

T1 sequence (P37136 32-614): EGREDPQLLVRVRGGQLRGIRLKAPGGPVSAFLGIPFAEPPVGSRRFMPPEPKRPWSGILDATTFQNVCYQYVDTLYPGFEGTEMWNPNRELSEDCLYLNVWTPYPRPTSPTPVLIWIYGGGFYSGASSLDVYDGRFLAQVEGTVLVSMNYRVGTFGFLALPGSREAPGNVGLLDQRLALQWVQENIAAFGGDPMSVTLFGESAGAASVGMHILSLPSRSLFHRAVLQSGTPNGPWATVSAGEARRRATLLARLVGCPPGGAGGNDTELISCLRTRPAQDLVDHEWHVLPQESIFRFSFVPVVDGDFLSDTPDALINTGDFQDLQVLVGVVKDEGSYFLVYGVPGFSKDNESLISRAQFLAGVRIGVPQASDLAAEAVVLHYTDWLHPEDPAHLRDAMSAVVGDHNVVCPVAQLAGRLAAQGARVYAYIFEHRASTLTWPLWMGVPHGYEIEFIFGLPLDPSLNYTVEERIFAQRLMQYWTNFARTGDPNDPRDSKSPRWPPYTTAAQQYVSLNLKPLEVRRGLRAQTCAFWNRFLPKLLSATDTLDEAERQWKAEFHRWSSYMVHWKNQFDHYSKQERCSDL

Compound | IC50 [1] | % of Animals with Scopolamine Induced Memory Deficit Reversal ([2]; 0.1 mg/kg of body weight) | % of Animals with Scopolamine Induced Memory Deficit Reversal ([2]; 5 mg/kg of body weight)
O=C1c2cccc3c2C(CCC3)C1CC1CCN(Cc2ccccc2)CC1 (stereo not shown) [2-[(N-Benzylpiperidin-4-yl)methyl]-2a,3,4,5-tetrahydro-1(2H)-acenaphthylen-1-one hydrochloride] | 1020 nM | – | –
O=C1c2cccc3c2C(CCC3)C1CC1CCN(Cc2cccc(F)c2)CC1 (stereo not shown) [2-[[N-(3-Fluorobenzyl)piperidin-4-yl]methyl]-2a,3,4,5-tetrahydro-1(2H)-acenaphthylen-1-one hydrochloride] | 4100 nM | 20% | –
CC[C@@H]1C(=O)OC[C@@H]1Cc1cncn1C [Pilocarpine, reference compound] | – | – | 23%
